Experimental data from US6133273A, “Pyrazolopyrimidine-2,4-dione sulfonamides” (American Home Products Corporation, priority 1999, dated 2000).

Key:
[1] = tested on: C1-3 cell line (calcitonin secretion); test: Calcitonin Secretion/RIA Assay; type: cell-based, human; settings: active if >2.5; for fold induction at 30 µM: Homo sapiens, C13, ratio of calcitonin secretion vs untreated control
Procedure: Cell Line: C1-3 (Parent Cell Line: TT-medullary thyroid carcinoma),
Reagent A--(Anti-Calcitonin)
Regent C--(Anti-Goat Precipitant)
Regent D--(Zero Standard).
Reagents E-I--(Calcitonin Standards)
Reagents J-K (Calcitonin Controls: Level and Level 2)
1. Glass tubes were labeled to include Total Count (TC), Nonspecific Binding (NSB), Maximum Binding (Bo), Standards, Controls and Patient Sera in duplicate.
2. […] of Standard Zero (Reagent D) was added to tubes 3 through 6 (NSB and Bo).
3. […] of Standards* (Reagents E-1) was added to tubes 7-16 as follows:
4. […] of Patient Serum 1 was added to tubes 21 and 22, Patient Serum 2 was added to tubes 23 and 24, etc.
5. […] of Reagent L (NSB Buffer) was added to tubes 3 and 4.
6. […] of Reagent A (Anti-Calcitonin) was added to all tubes except tubes 1 & 2 (TC) and tube 3 & 4 (NSB). All tubes were vortexed, covered with parafilm or foil and incubated 44±6 hours at 2-8° C.
7. […] All tubes were vortexed, covered with parafilm or foil and incubated 22±3 hours at 2-8° C.
8. Reagent C (Anti-Goat Precipitant) was mixed gently but thoroughly by inverting the vial several times before use. 1 mL Reagent C was added to all tubes except 1 and 2 (TC). Tubes were vortexed and incubated 20 minutes at room temperature.
9. All tubes were centrifuged at 1300-1500×g for 15 minutes at 2-8° C.
10. Supernatant was decanted immediately after centrifugation taking care to leave the precipitate intact.
11. Tubes were counted 4 minutes or longer.
Secretion Ratio: Stimulation of calcitonin secretion is expressed as a ratio of secretion activity in the presence of test compound compared to the secretion activity in the untreated control: [formula]

PDE-IV = test: Inhibition of Phosphodiesterase IV (PDE-IV) isolated from human U937 cells; type: biochemical; settings: U937 cell PDE-IV, 1 μM [3H]-cAMP, 37° C., test compound 0.001 μM to 10 μM
Procedure: This assay was used to biochemically assess the ability of a test compound to inhibit PDE-IV isolated from a U937 cell line, where PDE-IV refers to the cGMP-insensitive, cAMP-selective PDE.
Cell Culture: U937 cells were grown in RPMI 1640 medium supplemented with 10% heat-inactivated fetal calf serum and Penicillin/Streptomycin (100 units/100 μg per mL) in a humidified 5% CO2 atmosphere at 37° C. Starter cells were maintained in continuous logarithmic growth by seeding them in 75 cm^2 vented tissue culture flasks at a concentration of 3×10^4 cells/mL and passing them every 3-4 days when the cells reached approximately 8×10^5 cells/mL. For experiments, 3-4 day starter cells were seeded in 225 cm^2 flasks at 1×10^5 cells/mL and harvested 3-4 days later at approx. 6×10^5 cells/mL.
Isolation of PDE-IV: U937 cells were activated with 10 μM dibutyryl cAMP for a period of 4 hours (to up-regulate PDE-IV) and then harvested by centrifugation at 1200×g for 10 min in 250 mL conical centrifuge tubes. The pellet from each 200 mL flask was resuspended in 5 mL buffer A [10 mM Tris-HCl, 5 mM MgCl2, 4 mM EGTA, 5 mM 2-mercaptoethanol, 1 μM leupeptin, 1 μM pepstatin A, and 5 μM phenylmethyl sulfonyl fluoride (PMSF) (pH 7.8)], and the cells were lysed using 3 cycles of freezing (3 min in dry ice/acetone) followed by thawing (warm water). […] To determine which families of PDEs were present, fractions may be assayed for hydrolytic activity with 1 μM [^3 H]-cAMP or 1 μM [^3 H]-cGMP. Additionally, 1 μM [^3 H]-cAMP assays were conducted in the presence of 10 μM rolipram, 10 μM cGMP, or calmodulin (1 unit/0.4 mL plus 10 μM CaCl2).
When prepared in this manner, approximately 80% of total cAMP PDE activity is eluted by Buffer B containing 0.7 M sodium acetate. This PDE activity consists of>90% PDE-IV (as evidenced by its susceptibility to inhibition by rolipram.
PDE assay: PDE activity was measured using a modification of the radioisotope procedure previously described by Thompson et al. (Thompson, W. J., Terasaki, W. L., Epstein, P. M. and Strada, S. J. Adv, Cyclic Nucleotide Res. 1979, 10, 69). Reaction mixtures (0.4 mL) contain 40 mM Tris-HCl (pH 7.8), 4 mM 2-mercaptoethanol, 5 mM MgCl2, 0.1 μM leupeptin, 0.1 μM pepstatin A, 0.1 μM PMSF, 1 μM [3H]-cAMP or 1 μM [^3 H]-cGMP (~200,000 DPM), and enzyme to initiate the reaction. ^3 H-cAMP substrate was prepared as follows: A stock solution of ^3 H-cyclic nucleotide (1000 μCi/mL) was diluted 1:10 in 50% EtOH. 200 μl of this diluted stock solution was added to a cold (unlabeled) cyclic nucleotide solution, made at a concentration of 4 μM. 100 μl of this solution was used per assay tube to achieve a final concentration of 1 μM cyclic nucleotide per assay tube (200,000 DPM). Enzyme activity was determined at 37° C. Reactions were terminated by boiling, incubating with snake venom, and cooling as previously described (Thompson et al., 1979). The reaction mixture was applied to a (0.8×8.5 cm) column containing 0.4 g Dowex I-X8 affinity resin; reaction tubes were rinsed with 0.5 mL of methanol; and this, along with an extra 1 mL of methanol, was applied to the column to elute the ^3 H-reaction products. After all liquid has passed through the column, the column was plunged with a 12 cc syringe plunger. Each column's eluate was collected in a 20 mL scintillation vial containing 10 mL aquasol-2 and counted by scintillation spectrophotometry. [^3 H]-adenosine or [^3 H]-guanosine recovery was corrected for background DPM determined in the absence of enzyme. The amount of enzyme and duration of assay were adjusted to ensure that less than 25% of the substrate was consumed under these conditions.
Measurements: Inhibition by a test compound was measured as a percent reduction of total PDE activity, and calculated as follows: [formula] where A is the PDE activity (mean DPM-background DPM) in the presence of test compound, and B is the total PDE-IV activity (mean DPM-background DPM) in the absence of test compound. […]

[2] = tested on: promoter region of the human calcitonin gene (luciferase reporter, C1-3 cells); test: Calcitonin/Luciferase Reporter Gene Expression Assay; settings: for fold induction at 30 µM: read-out: TAR (transcription activation ratio)
Procedure: This assay was used to determine the ability of a compound to stimulate transcription of a luciferase reporter gene regulated by 3 kb of the promoter region of the human calcitonin gene.
C1-3 cells were plated at a density of 6,500-7,500 cells per well in a 96-plate microtiter plate. Twenty-four to forty-eight hours later, compounds were added to the wells in triplicate. Compounds were tested at a concentration of 10 μg/mL in 0.5% DMSO.
The production of light is measured on a luminometer.
TAR Ratio: Stimulation of calcitonin promoter-dependent transcription is expressed as a ratio of luciferase activity (LUCI) in the presence of test compound compared to the LUCI activity in the untreated control: [formula]

Molecule	Secretion Ratio ([1]; 30 μM, ratio of calcitonin secretion vs untreated control)	% Inhibition of PDE IV (normalized to rolipram) (PDE-IV)	TAR (transcription activation ratio) ([2]; 30 μM, ratio of luciferase activity vs untreated control, active if TAR>1.5)	fold induction at 30 µM [1]	fold induction at 30 µM ([2]; Homo sapiens, C13, 12 h)	fold induction at 1000 µM ([2]; Homo sapiens, C13, 12 h, read-out: fold induction of luciferase (control stimulation))
4,6-Dibutyl-1-(propane-1-sulfonyl)-1,4-dihydro-pyrazolo[4,3-d]pyrimidine-5,7-dione [Example 9]	2.71	27%	1.47	–	–	–
CCCCn1c(=O)c2nn(S(=O)(=O)CCCCl)cc2n(CCCC)c1=O [Example 1, 4,6-Dibutyl-3-chloropropanesulfonyl-2,4-dihydro-pyrazolo[4,3-d]pyrimidine-5,7-dione]	–	–	–	4.35	1.34	–
CCCCn1c(=O)c2nn(S(=O)(=O)Cc3ccccc3)cc2n(CCCC)c1=O [Example 2, 4,6-Dibutyl-2-phenylmethanesulfonyl-2,4-dihydro-pyrazolo[4,3-d]pyrimidine-5,7-dione]	–	35%	–	2.55	1.51	–
CCCCn1c(=O)c2nn(S(=O)(=O)c3cccc(C(F)(F)F)c3)cc2n(CCCC)c1=O [Example 3, 4,6-Dibutyl-2-(3-trifluoromethyl-benzenesulfonyl)-2,4-dihydro-pyrazolo[4,3-d]pyrimidine-5,7-dione]	–	68%	–	3.79	1.79	–
Nc1ncnc2c1nc(Sc1ccc(Cl)cc1)n2[C@@H]1O[C@@H]2COP(=O)(O)O[C@H]2[C@H]1O [Example 8-CPT-cAMP, 8-CPT-cAMP, reference compound]	–	–	–	–	–	2 to 3
CCCCn1c(=O)c2nn(S(=O)(=O)c3c(Cl)cc(Cl)cc3Cl)cc2n(CCCC)c1=O [Example 11, 4,6-Dibutyl-2-(2,4,6-trichloro-benzenesulfonyl)-2,4-dihydro-pyrazolo[4,3-d]pyrimidine-5,7-dione]	–	26%	–	4.31	1.76	–
CCCCn1c(=O)c2nn(S(=O)(=O)c3cccc4cccnc34)cc2n(CCCC)c1=O [Example 12, 4,6-Dibutyl-2-(quinoline-8-sulfonyl)-2,4-dihydro-pyrazolo[4,3-d]pyrimidine-5,7-dione]	–	41%	–	3.83	2.22	–
CCCCn1c(=O)c2cn(S(=O)(=O)CCCCl)nc2n(CCCC)c1=O [Example 13, 5,7-Dibutyl-2-(3-chloro-propane-1-sulfonyl)-2,7-dihydro-pyrazolo[3,4-d]pyrimidine-4,6-dione]	–	34%	–	2.71	1.91	–
CCCCn1c(=O)c2cn(S(=O)(=O)c3ccc(OC(F)(F)F)cc3)nc2n(CCCC)c1=O [Example 14, 5,7-Dibutyl-2-(4-trifluoromethoxy-benzenesulfonyl)-2,7-dihydro-pyrazolo[3,4-d]pyrimidine-4,6-dione]	–	92%	–	4.29	2.22	–
CCCCn1c(=O)c2cn(S(=O)(=O)c3cc(Cl)c(Cl)s3)nc2n(CCCC)c1=O [Example 15, 5,7-Dibutyl-2-(4,5-dichloro-thiophene-2-sulfonyl)-2,7-dihydro-pyrazolo[3,4-d]pyrimidine-4,6-dione]	–	59%	–	3.67	2.93	–
CCCCn1c(=O)c2cn(S(=O)(=O)c3ccc(C(F)(F)F)cc3)nc2n(CCCC)c1=O [Example 16, 5,7-Dibutyl-2-(4-trifluoromethyl-benzenesulfonyl)-2,7-dihydro-pyrazolo[3,4-d]pyrimidine-4,6-dione]	–	62%	–	3.86	2.61	–
CCCCn1c(=O)c2cn(S(C)(=O)=O)nc2n(CCCC)c1=O [Example 17, 5,7-Dibutyl-2-methanesulfonyl-2,7-dihydro-pyrazolo[3,4-d]pyrimidine-4,6-dione]	–	17%	–	3.93	1.95	–
CCCCn1c(=O)n(C)c(=O)c2nn(S(=O)(=O)CCCCl)cc21 [Example 18, 4-Butyl-2-(3-chloro-propane-1-sulfonyl)-6-methyl-2,4-dihydro-pyrazolo[4,3-d]pyrimidine-5,7-dione]	–	34%	–	1.38	1.1	–
CCCCn1c(=O)c2cn(S(=O)(=O)Cc3ccccc3)nc2n(CCCC)c1=O [Example 19, 5,7-Dibutyl-2-phenylmethanesulfonyl-1,7-dihydro-pyrazolo[3,4-d]pyrimidine-4,6-dione]	–	48%	–	3.43	1.97	–
CCCCn1c(=O)c2nn(S(=O)(=O)CCCCl)cc2n(CCC(C)C)c1=O [Example 20, 6-Butyl-2-(3-chloro-propane-1-sulfonyl)-4-(3-methyl-butyl)-2,4-dihydro-pyrazolo[4,3-d]pyrimidine-5,7-dione]	–	42%	–	2.25	1.57	–
Cn1c(=O)c2cn(S(=O)(=O)CCCCl)nc2n(C)c1=O [Example 21, 2-(3-Chloro-propane-1-sulfonyl)-5,7-dimethyl-2,7-dihydro-pyrazolo[3,4-d]pyrimidine-4,6-dione]	–	68%	–	1.02	1.2	–
O=c1c2cn(S(=O)(=O)CCCCl)nc2n(CC2CC2)c(=O)n1CC1CC1 [Example 22, 2-(3-Chloro-propane-1-sulfonyl)-5,7-bis-cyclopropylmethyl-2,7-dihydro-pyrazolo[3,4-d]pyrimidine-4,6-dione]	–	30%	–	2.93	1.6	–
